Tests used:
[1] = target: TRPM8 receptors; details: previous in vitro studies; read-out: antagonistic potencies (IC50) for TRPM8 receptors; cited from earlier work
[2] = tested on: vagus ganglion neurons (VGNs); assay: Ca2+ imaging (Fluo-3) of acutely dissociated vagus ganglion neurons; type: cell-based, rat
Procedure: In one embodiment, retrograde labeling of vagus ganglions or bronchopulmonary tissues is performed on a murine or rat model. […] Instillation of the nerve tracing dye in the lower part of mice trachea was performed and, after 7 days, the mice (or rats) were sacrificed and the vagus ganglions were harvested, dissociated, and plated in dishes. Calcium-imaging approach was then used to identify bronchopulmonary vagus afferent neuron response to cold and menthol. […] All the data were represented as mean ±SEM. Paired-t tests were used for statistical comparison, and significance was considered at the p<0.05. To perform calcium imaging, VGNs were incubated with 2 μM Fluo3-AM in 20% pluronic acid (Molecular Probes, Eugene, Oreg.) for 30 min at 37° C. to load Ca^2+ indicator. The cells were then perfused with normal bath solution flowing at 1 ml/min in a 0.5 ml chamber. The normal bath solution contained (in mM): 150 NaCl, 5 KCl, 2 MgCl2, 2 CaCl2, 10 glucose, 10 HEPES, pH 7.2, osmolarity adjusted to 320 mOsm with sucrose. Fluo-3 fluorescence in the cells was detected using a peltier-cooled charge-coupled device (CCD) camera (PentaMAX-III System, Roper Scientific, Trenton, N.J.) under a fluorescent microscope (10× objective). Excitation was at 450 nm and emission at 550 nm, achieved by a fluorescence filter sets. Images were taken at one frame per second, and digitized using MetaFluor software (Universal Imaging Corporation). Unless otherwise indicated, all experiments were carried out at an ambient temperature of 26° C. Effects of cold on intracellular Ca^2+ levels were tested by application of a cold bath solution, which yield temperature drop from 26° C. to 19° C. within 1 min in the recording chamber. […] In a related embodiment, Adult Sprague-Dawley rats (200 to 300 g, n=48) were used according to the Institutional Animal Care and Use Committee guideline of the University of Florida. The rats were continuously anesthetized with isoflurane using an anaesthetizing machine. To retrograde label the vagus ganglion neurons that innervate low airway tissues, a 20 μl-DiI was instilled into the caudal region of the trachea in living adult rats (see FIG. 1a, which illustrates the instillation of DiI into the lower segment of rat trachea to retrograde label airway VGNs). The animals were positioned supine during dye instillation and kept the same position for 30 min before recovery from anesthesia. […] The neurons were plated on glass coverslips previously covered with PDL and used within 4 hours after plating.

[3] = tested on: vagus ganglion neurons (VGNs); assay: Whole-cell patch-clamp recordings (voltage-clamp and current-clamp) on menthol-responsive VGNs; type: cell-based, rat
[4] = tested on: rats; assay: Inhalation of menthol, respiratory reaction; type: in vivo, rat
[5] = target: T1, TRPM8 receptors (Rattus norvegicus, UniProt Q8R455); assay: TRPM8 expression in cultured sensory neurons in the presence of NGF; type: cell-based; details: NGF present
T1 construct: increase in number of TRPM8-expressing neurons in cell culture when in the presence of nerve growth factor (NGF); endogenous in cells; host or cells: cultured sensory neurons
Excerpt: Inflammation in lung tissues often can result in the increases the levels of nerve growth factor (NGF). […] Upregulation of TRPM8 receptors on these nerves can sensitize their responses to cold stimulation. FIGS. 8a and 8b illustrate the numbers of TRPM8 expression neurons and the responsiveness of these neurons to the TRPM8 ligand menthol. Specifically, FIG. 8a is a graphical illustration of an increase in number of TRPM8-expressing neurons in cell culture when in the presence of nerve growth factor (NGF). […] is a graphical illustration of the response of TRPM8-expressing neurons to the TRPM8 receptor agonist menthol when cultured in the presence or absence of NGF. The one day cultures were used in the absence of NGF.
Inflammatory reactions in bronchopulmonary tissues of asthma animals are known to result in an increased level of nerve growth factor (NGF). […] An up-regulation of TRPM8 receptors in inflammatory bronchopulmonary tissues will make animals more susceptible to cold.

T1 sequence (Q8R455 whole entry): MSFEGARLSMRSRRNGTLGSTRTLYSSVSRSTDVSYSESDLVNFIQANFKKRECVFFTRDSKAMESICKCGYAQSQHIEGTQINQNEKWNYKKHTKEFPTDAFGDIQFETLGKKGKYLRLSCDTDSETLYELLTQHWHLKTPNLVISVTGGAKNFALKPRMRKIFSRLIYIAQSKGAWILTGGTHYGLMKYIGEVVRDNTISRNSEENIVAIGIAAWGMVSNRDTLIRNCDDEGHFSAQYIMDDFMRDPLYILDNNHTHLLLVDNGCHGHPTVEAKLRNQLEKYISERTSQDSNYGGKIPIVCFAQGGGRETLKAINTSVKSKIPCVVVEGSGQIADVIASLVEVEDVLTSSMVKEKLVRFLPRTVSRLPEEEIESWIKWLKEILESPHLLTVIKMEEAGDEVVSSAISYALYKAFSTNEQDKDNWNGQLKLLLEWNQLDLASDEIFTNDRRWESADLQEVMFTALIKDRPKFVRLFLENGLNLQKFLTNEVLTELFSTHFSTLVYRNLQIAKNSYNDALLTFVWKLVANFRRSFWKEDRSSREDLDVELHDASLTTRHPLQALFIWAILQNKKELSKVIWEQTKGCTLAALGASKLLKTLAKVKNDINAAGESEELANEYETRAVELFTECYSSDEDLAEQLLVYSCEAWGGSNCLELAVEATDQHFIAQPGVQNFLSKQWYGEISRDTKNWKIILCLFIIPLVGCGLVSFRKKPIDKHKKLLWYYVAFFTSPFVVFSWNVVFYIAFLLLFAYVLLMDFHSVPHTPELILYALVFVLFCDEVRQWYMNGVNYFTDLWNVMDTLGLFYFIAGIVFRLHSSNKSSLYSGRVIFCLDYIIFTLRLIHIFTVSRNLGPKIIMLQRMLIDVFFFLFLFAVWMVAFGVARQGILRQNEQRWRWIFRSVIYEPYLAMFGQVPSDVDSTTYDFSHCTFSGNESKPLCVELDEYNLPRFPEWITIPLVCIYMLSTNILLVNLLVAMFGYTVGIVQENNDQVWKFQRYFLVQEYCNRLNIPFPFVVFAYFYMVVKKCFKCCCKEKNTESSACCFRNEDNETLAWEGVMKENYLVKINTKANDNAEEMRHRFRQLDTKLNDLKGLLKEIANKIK

CC(C)(C)c1ccc(NC(=S)N2CCN(c3ncccc3Cl)CC2)cc1 [thio-BCTC]
IC50 [1]: 3.5 ± 1.1 µM

Nc1ncnc2c1ncn2[C@@H]1O[C@H](COP(=O)(O)OP(=O)(O)OP(=O)(O)O)[C@@H](O)[C@H]1O [ATP]
ATP sensitivity of menthol-responsive VGNs ([2]; Ca2+ imaging, menthol and ATP responses): almost all menthol-responsive VGNs were ATP-sensitive

CC1CCC(C(C)C)C(O)C1 (stereo not shown) [menthol]
DiI-labeled cells both menthol- and cold-responsive ([2]; 27 of 170 DiI-labeled cells, menthol 100 μM, cold 26 to 19° C.): 16%
DiI-labeled cells showing response to menthol ([2]; menthol 100 μM, 20 s, 28 of 170 DiI-labeled cells): 17%
VGNs with increases of intracellular Ca2+ ([2]; menthol 100 μM, 20 s, 116/1638 cells, DiI-labeled and non-labeled, response ΔF/F0 >0.1): 7%
membrane potential after depolarization by menthol ([3]; menthol 100 μM, 20 s, current-clamp, from resting potential 60±0.6 mV, n=4): 38±1.5 mV
menthol-evoked inward current ([3]; menthol 100 μM, 20 s, voltage-clamp, held at −70 mV, n=7): 191±29 pA
action potential firing ([3]; menthol 100 μM, current-clamp): action potentials elicited
action potential firing ([3]; menthol 100 μM, current-clamp, listed as Menthol): caused action potential firing
reversal potential of menthol-evoked currents ([3]; voltage ramp, strong outward rectification, n=4): −2±0.3 mV
respiratory reaction on inhalation ([4]; menthol 1 μM): respiratory reaction is not obvious
respiratory reaction on inhalation ([4]; menthol 1 mM, n=3): results in a breathing difficulty

NCCOB(c1ccccc1)c1ccccc1 [2-APB, 2-aminoethoxydiphenyl borate]
IC50 [1]: ~50 µM

CC(C)(C)c1ccc(NC(=O)N2CCN(c3ncccc3Cl)CC2)cc1 [BCTC, N-(4-Tertiarybutylphenyl)-4-(3-cholorphyridin-2-yl)tetrahydropyrazine-1(2H)-carbox-amide]
IC50 [1]: 0.8 ± 1 µM

Oc1cc2c(cc1O)CN(C(=S)NCCc1ccc(Cl)cc1)CCC2 [capsazepine]
IC50 [1]: 18 ± 1.1 µM

NGF: nerve growth factor
TRPM8 receptor expression [5]: up-regulated

— patent US20080213248A1, “Methods and Systems for Treating Asthma and Other Respiratory Diseases” (UNIVERSITY OF FLORIDA RESEARCH FOUNDATION, INC., priority 2004, published 2008)
